# Test results: patent US20080015255A1, “Pharmaceutical Compositions Based on Fluorinated Sulphamides and Sulphinimides” (CENTRE NATIONAL DE LA RECHERCHE SCIENTIFIQUE(C.N.R.S.), priority 2004, published 2008)
# Molecular target: bovine carbonic anhydrase (Bos taurus, UniProt P00921)
# Experiment: Inhibition of bovine carbonic anhydrase esterase activity (hydrolysis of p-nitrophenyl acetate, UV 348 nm)
# Conditions: for inhibition with respect to carboanhydrase, in words: comparable with or even superior to that of acetazolamide; for % inhibition of the hydrolysis of nitrophenyl acetate (NPA) catalyzed by carbonic anhydrase: 25° C.
# bovine carbonic anhydrase, sequence (P00921 whole entry): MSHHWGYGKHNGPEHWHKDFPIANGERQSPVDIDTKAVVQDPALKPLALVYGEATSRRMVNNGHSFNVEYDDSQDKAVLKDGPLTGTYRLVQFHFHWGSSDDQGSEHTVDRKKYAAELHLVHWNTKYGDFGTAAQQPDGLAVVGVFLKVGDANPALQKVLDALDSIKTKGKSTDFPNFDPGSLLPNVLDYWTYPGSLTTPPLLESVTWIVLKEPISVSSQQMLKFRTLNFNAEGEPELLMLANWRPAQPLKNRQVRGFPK
SMILES,"inhibition with respect to carboanhydrase, in words",% inhibition of the hydrolysis of nitrophenyl acetate (NPA) catalyzed by carbonic anhydrase (inhibitor 1.35 10^−6 mol/l),% inhibition of the hydrolysis of nitrophenyl acetate (NPA) catalyzed by carbonic anhydrase (inhibitor 1.35 10^−7 mol/l),% inhibition of the hydrolysis of nitrophenyl acetate (NPA) catalyzed by carbonic anhydrase (inhibitor 1.35 10^−8 mol/l),% inhibition of the hydrolysis of nitrophenyl acetate (NPA) catalyzed by carbonic anhydrase (inhibitor 1.35 10^−4 mol/l)
"NS(=O)(=O)C(F)(F)C(F)(F)C(F)(F)C(F)(F)S(N)(=O)=O [(C2F4SO2NH2)2, perfluorobutane-1,4-disulfamide]",very considerable inhibition,78%,6%,1%,
O=S(=O)(NS(=O)(=O)C(F)(F)C(F)(F)C(F)(F)C(F)(F)F)C(F)(F)C(F)(F)C(F)(F)C(F)(F)F [(C4F9SO2)2NH],,0%,,,65%
O=S(=O)(NS(=O)(=O)C(F)(F)C(F)(F)C(F)(F)C(F)(F)C(F)(F)C(F)(F)C(F)(F)C(F)(F)F)C(F)(F)C(F)(F)C(F)(F)C(F)(F)F [(C4F9SO2)NH(C8F17SO2)],,0%,,,97%
"O=S(=O)(NS(=O)(=O)C(F)(F)C(F)(F)C(F)(F)C(F)(F)C(F)(F)C(F)(F)F)C(F)(F)C(F)(F)C(F)(F)C(F)(F)C(F)(F)C(F)(F)F [(C6F13SO2)2NH, bis(1,1,2,2,3,3,4,4,5,5,6,6,6)tridecafluoro-n-hexylsulfinimide]",,0%,,,85%
O=S(=O)(NS(=O)(=O)C(F)(F)C(F)(F)C(F)(F)C(F)(F)C(F)(F)C(F)(F)F)C(F)(F)C(F)(F)C(F)(F)C(F)(F)F [(C6F13SO2)NH(C4F9SO2)],,0%,,,87%
O=S(=O)(NS(=O)(=O)C(F)(F)C(F)(F)C(F)(F)C(F)(F)C(F)(F)C(F)(F)C(F)(F)C(F)(F)F)C(F)(F)C(F)(F)C(F)(F)C(F)(F)C(F)(F)C(F)(F)C(F)(F)C(F)(F)F [(C8F17SO2)2NH],,0%,,,89%
O=S(=O)(NS(=O)(=O)C(F)(F)C(F)(F)C(F)(F)C(F)(F)C(F)(F)C(F)(F)C(F)(F)C(F)(F)F)C(F)(F)C(F)(F)C(F)(F)C(F)(F)C(F)(F)C(F)(F)F [(C8F17SO2)NH(C6F13SO2)],,0%,,,87%
NS(=O)(=O)CCC(F)(F)C(F)(F)C(F)(F)C(F)(F)C(F)(F)C(F)(F)C(F)(F)C(F)(F)F [C8F17(CH2)2SO2NH2],,36%,,,
[Li+].[NH-]S(=O)(=O)C(F)(F)C(F)(F)C(F)(F)C(F)(F)C(F)(F)C(F)(F)C(F)(F)C(F)(F)F [C8F17SO2NH^−+Li],,85%,3%,,
"[NH-]S(=O)(=O)C(F)(F)C(F)(F)C(F)(F)C(F)(F)C(F)(F)C(F)(F)C(F)(F)C(F)(F)F.[Na+] [C8F17SO2NH^−+Na, sodium 1,1,2,2,3,3,4,4,5,5,6,6,7,7,8,8,8-heptadecafluoro-n-octylsulfamide anion]",very considerable inhibition,94%,40%,17%,
"CCCCCCS(N)(=O)=O [Example C6H13SO2NH2, n-hexanesulfamide, reference compound]",,0%,,,73%
NS(=O)(=O)C(F)(F)C(F)(F)C(F)(F)C(F)(F)C(F)(F)C(F)(F)C(F)(F)F [Example C7F15SO2NH2],,80%,0%,,
"NS(=O)(=O)C(F)(F)C(F)(F)C(F)(F)C(F)(F)C(F)(F)C(F)(F)C(F)(F)C(F)(F)F [Example C8F17SO2NH2, 1,1,2,2,3,3,4,4,5,5,6,6,7,7,8,8,8-heptadecafluoro-octanesulfamide]",very considerable inhibition,88%,7%,5%,
"CCCCCCCCS(N)(=O)=O [Example C8H17SO2NH2, n-octanesulfamide, reference compound]",,5%,,,86%
